Data: ChEMBL document CHEMBL1909046, “DrugMatrix in vitro pharmacology data”
Where a SMILES comes first, the peptide text is derived from it. Bridges are numbered along the chain shown (N, C = ends). [ ]: non-standard residue; d: D form. The star is where a group is joined. Ileψ(thiazoline)Cys = CC[C@H](C)[C@H](N)C1=N[C@H](C(=O)*)CS1; dOrn = NCCC[C@@H](N)C(=O)O

How the values were obtained:
[1] = target: T1, Type-2 angiotensin II receptor (Homo sapiens, UniProt P50052); format: cell-based; details: cho-k1; further: in other assays of this panel Not Active means under 50% inhibition at 10 µM
T1 sequence (P50052 whole entry): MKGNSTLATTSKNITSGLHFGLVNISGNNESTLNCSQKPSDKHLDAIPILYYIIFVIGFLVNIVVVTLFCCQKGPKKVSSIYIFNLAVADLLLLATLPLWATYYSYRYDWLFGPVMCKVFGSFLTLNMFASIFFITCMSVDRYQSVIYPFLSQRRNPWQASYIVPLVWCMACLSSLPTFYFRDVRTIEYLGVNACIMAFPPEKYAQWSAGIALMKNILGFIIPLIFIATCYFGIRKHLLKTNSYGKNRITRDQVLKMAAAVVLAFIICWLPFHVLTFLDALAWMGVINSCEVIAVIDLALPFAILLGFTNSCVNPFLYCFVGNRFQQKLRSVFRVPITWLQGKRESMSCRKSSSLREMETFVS

[2] = DRUGMATRIX: beta-Lactamase enzyme inhibition (substrate: Nitrocefin); design: species or system Bacillus cereus; details: Not Active = under 50% inhibition at 10 µM
[3] = target: T2, Calcitonin receptor (Homo sapiens, UniProt P30988); format: cell membranes, Membrane; details: t47d; further: in other assays of this panel Not Active means under 50% inhibition at 10 µM
T2 sequence (P30988 whole entry): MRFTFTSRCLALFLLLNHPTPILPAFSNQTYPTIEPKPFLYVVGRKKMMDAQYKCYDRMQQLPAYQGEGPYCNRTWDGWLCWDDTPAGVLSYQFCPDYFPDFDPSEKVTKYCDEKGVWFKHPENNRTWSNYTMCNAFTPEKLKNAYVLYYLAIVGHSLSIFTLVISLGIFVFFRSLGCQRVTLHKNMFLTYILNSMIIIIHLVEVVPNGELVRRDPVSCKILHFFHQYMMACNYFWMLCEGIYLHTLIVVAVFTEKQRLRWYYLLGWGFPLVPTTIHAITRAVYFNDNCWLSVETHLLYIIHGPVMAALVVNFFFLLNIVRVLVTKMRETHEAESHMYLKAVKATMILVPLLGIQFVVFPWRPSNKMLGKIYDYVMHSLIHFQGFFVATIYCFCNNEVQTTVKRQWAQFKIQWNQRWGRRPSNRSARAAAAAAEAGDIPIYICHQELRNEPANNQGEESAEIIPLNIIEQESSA

[4] = target: Vascular endothelial growth factor receptor 1 (Homo sapiens, UniProt P17948); format: cell-based; details: huvec; further: in other assays of this panel Not Active means under 50% inhibition at 10 µM
Chain of Vascular endothelial growth factor receptor 1 (P17948 whole entry): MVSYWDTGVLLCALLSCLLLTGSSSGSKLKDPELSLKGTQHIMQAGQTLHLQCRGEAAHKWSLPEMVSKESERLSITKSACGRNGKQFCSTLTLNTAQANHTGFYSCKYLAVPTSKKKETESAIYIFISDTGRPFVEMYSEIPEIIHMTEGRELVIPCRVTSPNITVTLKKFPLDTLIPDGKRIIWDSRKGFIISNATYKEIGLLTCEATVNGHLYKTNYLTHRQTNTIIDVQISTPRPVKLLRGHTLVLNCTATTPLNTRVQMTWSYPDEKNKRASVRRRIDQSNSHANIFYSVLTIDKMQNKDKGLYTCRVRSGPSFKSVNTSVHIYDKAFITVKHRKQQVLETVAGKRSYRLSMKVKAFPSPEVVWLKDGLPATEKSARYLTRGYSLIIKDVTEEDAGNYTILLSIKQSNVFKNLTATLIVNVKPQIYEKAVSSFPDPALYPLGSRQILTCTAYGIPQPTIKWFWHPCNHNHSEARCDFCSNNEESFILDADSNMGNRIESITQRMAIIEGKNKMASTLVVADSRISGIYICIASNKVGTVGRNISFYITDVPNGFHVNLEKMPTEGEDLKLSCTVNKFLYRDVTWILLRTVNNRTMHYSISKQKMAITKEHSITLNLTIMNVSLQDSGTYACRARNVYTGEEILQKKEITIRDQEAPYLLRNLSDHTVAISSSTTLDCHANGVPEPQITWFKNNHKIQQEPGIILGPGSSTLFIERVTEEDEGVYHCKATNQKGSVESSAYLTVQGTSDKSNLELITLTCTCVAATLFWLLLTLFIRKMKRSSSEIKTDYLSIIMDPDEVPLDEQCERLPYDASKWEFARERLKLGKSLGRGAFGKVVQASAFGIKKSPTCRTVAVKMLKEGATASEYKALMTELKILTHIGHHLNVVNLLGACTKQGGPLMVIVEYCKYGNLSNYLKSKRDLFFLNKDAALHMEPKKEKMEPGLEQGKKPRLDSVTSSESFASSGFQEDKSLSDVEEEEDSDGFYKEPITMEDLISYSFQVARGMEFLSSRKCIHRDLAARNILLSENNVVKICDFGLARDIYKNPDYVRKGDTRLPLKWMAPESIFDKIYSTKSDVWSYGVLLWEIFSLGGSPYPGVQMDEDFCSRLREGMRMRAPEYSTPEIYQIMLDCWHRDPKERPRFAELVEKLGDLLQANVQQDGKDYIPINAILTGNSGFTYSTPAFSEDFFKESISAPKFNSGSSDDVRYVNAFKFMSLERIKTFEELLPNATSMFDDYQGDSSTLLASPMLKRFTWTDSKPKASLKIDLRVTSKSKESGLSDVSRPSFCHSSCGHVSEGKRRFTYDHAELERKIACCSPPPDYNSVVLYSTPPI

[5] = target: C-C chemokine receptor type 2 (Homo sapiens, UniProt P41597); format: cell membranes, CHO-K1, Membrane; details: cho-k1; further: in other assays of this panel Not Active means under 50% inhibition at 10 µM
Chain of C-C chemokine receptor type 2 (P41597 whole entry): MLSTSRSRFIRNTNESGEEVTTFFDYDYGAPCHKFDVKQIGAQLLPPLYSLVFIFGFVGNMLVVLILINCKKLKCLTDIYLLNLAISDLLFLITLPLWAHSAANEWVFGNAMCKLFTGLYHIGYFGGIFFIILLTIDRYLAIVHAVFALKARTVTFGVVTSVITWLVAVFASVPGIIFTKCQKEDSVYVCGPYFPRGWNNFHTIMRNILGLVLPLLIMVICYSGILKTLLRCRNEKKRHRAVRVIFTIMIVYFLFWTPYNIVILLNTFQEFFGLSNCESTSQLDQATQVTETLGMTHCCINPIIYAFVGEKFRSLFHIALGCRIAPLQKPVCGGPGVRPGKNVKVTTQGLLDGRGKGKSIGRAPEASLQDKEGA

[6] = target: T3, D(4) dopamine receptor (Homo sapiens, UniProt P21917); assay: DRUGMATRIX: Dopamine D4.2 radioligand binding (ligand: [3H] Spiperone); format: cell membranes, CHO-K1, Membrane; details: cho-k1; Not Active = under 50% inhibition at 10 µM
T3 sequence (P21917 whole entry): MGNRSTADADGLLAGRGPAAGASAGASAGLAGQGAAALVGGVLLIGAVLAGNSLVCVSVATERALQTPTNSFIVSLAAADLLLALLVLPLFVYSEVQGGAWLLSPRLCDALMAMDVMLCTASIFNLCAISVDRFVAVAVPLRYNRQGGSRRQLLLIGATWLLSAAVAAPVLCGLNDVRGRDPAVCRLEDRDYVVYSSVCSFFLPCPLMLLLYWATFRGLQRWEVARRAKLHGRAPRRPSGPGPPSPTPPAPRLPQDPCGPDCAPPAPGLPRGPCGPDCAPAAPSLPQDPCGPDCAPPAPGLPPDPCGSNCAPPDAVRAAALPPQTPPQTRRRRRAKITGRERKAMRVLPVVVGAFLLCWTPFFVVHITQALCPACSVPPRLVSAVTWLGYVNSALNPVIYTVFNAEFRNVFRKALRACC

[7] = target: Sodium-dependent dopamine transporter (Homo sapiens, UniProt Q01959); assay: DRUGMATRIX: Dopamine Transporter radioligand binding (ligand: [125I] RTI-55); format: cell membranes, CHO-K1, Membrane; details: cho-k1; Not Active = under 50% inhibition at 10 µM
Chain of Sodium-dependent dopamine transporter (Q01959 whole entry): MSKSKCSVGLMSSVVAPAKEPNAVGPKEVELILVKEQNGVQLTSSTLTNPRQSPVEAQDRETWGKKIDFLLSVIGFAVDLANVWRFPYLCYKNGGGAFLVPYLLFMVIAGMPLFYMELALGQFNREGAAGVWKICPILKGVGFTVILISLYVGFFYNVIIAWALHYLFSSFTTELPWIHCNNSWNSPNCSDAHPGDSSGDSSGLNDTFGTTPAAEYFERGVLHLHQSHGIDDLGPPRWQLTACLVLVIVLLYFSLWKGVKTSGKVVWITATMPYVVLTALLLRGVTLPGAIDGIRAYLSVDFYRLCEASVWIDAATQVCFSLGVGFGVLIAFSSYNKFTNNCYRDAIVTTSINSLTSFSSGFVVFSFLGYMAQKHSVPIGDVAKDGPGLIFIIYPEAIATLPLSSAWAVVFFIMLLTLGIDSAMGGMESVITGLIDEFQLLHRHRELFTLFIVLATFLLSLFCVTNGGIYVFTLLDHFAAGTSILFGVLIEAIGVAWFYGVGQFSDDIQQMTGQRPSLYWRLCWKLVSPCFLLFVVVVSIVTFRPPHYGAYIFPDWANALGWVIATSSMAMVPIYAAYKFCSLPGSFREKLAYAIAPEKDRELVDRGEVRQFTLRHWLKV

[8] = DRUGMATRIX: GABAA, Muscimol, Central radioligand binding (ligand: [3H] Muscimol); format: cell membranes, Rattus norvegicus, Wistar, Brain, Membrane; details: Not Active = under 50% inhibition at 10 µM
[9] = DRUGMATRIX: Glutamate, AMPA radioligand binding (ligand: [3H] AMPA); format: cell membranes, Rattus norvegicus, Wistar, Cerebral cortex, Membrane; details: Not Active = under 50% inhibition at 10 µM
[10] = target: Cytochrome P450 2E1 (Homo sapiens, UniProt P05181); details: bti-tn-5b1-4; further: in other assays of this panel Not Active means under 50% inhibition at 10 µM
Chain of Cytochrome P450 2E1 (P05181 whole entry): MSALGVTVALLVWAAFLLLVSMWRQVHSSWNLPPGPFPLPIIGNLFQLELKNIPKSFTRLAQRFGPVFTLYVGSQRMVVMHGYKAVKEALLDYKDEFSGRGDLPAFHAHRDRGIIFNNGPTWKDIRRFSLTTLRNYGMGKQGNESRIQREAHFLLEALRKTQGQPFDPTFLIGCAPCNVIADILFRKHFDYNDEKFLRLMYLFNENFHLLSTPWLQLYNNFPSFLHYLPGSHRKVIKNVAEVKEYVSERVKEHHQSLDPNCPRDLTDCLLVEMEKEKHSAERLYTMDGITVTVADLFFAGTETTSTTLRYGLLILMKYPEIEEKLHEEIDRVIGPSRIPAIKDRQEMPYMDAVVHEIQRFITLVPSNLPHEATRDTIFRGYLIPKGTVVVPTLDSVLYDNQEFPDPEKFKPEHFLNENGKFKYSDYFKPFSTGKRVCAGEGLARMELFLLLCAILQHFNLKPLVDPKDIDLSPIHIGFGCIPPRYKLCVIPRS

O=c1cc(-c2ccccc2)oc2c1ccc1ccccc12 [ALPHA-NAPHTHOFLAVONE]
Not Active: IC50 [1] | IC50 [2] | Ki [2] | IC50 [3] | IC50 [4] | IC50 [5] | IC50 [6] | IC50 [7] | IC50 [8] | Ki [8] | IC50 [9] | Ki [9] | IC50 [10] | Ki [10]

NCC[C@H](O)C(=O)N[C@@H]1C[C@H](N)[C@@H](O[C@H]2O[C@H](CN)[C@@H](O)[C@H](O)[C@H]2O)[C@H](O)[C@H]1O[C@H]1O[C@H](CO)[C@@H](O)[C@H](N)[C@H]1O [AMIKACIN]
Not Active: IC50 [1] | IC50 [2] | Ki [2] | IC50 [3] | IC50 [4] | IC50 [5] | IC50 [6] | IC50 [7] | IC50 [8] | Ki [8] | IC50 [9] | Ki [9] | IC50 [10] | Ki [10]

CC1(C)S[C@@H]2[C@H](NC(=O)[C@H](N)c3ccc(O)cc3)C(=O)N2[C@H]1C(=O)O [AMOXICILLIN]
Not Active: IC50 [1] | IC50 [2] | Ki [2] | IC50 [3] | IC50 [4] | IC50 [5] | IC50 [6] | IC50 [7] | IC50 [8] | Ki [8] | IC50 [9] | Ki [9] | IC50 [10] | Ki [10]

CCOC(=O)OC(C)OC1=C(C(=O)Nc2ccccn2)N(C)S(=O)(=O)c2ccccc21 (stereo not drawn) [AMPIROXICAM]
Not Active: IC50 [1] | IC50 [2] | Ki [2] | IC50 [3] | IC50 [4] | IC50 [5] | IC50 [6] | IC50 [7] | IC50 [8] | Ki [8] | IC50 [9] | Ki [9] | IC50 [10] | Ki [10]

N#C[C@H](O[C@@H]1O[C@H](CO[C@@H]2O[C@H](CO)[C@@H](O)[C@H](O)[C@H]2O)[C@@H](O)[C@H](O)[C@H]1O)c1ccccc1 [AMYGDALIN]
Not Active: IC50 [1] | IC50 [2] | Ki [2] | IC50 [3] | IC50 [4] | IC50 [5] | IC50 [6] | IC50 [7] | IC50 [8] | Ki [8] | IC50 [9] | Ki [9] | IC50 [10] | Ki [10]

N=C(N)NCCCCNC(=N)N.O=S(=O)(O)O [ARCAINE SULFATE]
Not Active: IC50 [1] | IC50 [2] | Ki [2] | IC50 [3] | IC50 [4] | IC50 [5] | IC50 [6] | IC50 [7] | IC50 [8] | Ki [8] | IC50 [9] | Ki [9] | IC50 [10] | Ki [10]

C=C1[C@@H]2CCC3[C@@](CC[C@@H]4[C@H](C(=O)O)C[C@@H](O[C@@H]5O[C@H](CO)[C@@H](OS(=O)(=O)[O-])[C@H](OS(=O)(=O)[O-])[C@H]5OC(=O)CC(C)C)C[C@@]34C)(C2)[C@@H]1O.[K+].[K+] (stereo partly drawn) [ATRACTYLOSIDE]
Not Active: IC50 [1] | IC50 [2] | Ki [2] | IC50 [3] | IC50 [4] | IC50 [5] | IC50 [6] | IC50 [7] | IC50 [8] | Ki [8] | IC50 [9] | Ki [9] | IC50 [10] | Ki [10]

Cn1cnc([N+](=O)[O-])c1Sc1ncnc2nc[nH]c12 [AZATHIOPRINE]
Not Active: IC50 [1] | IC50 [2] | Ki [2] | IC50 [3] | IC50 [4] | IC50 [5] | IC50 [6] | IC50 [7] | IC50 [8] | Ki [8] | IC50 [9] | Ki [9] | IC50 [10] | Ki [10]

CC1(C)S[C@@H]2[C@H](NC(=O)[C@H](NC(=O)N3CCNC3=O)c3ccccc3)C(=O)N2[C@H]1C(=O)O [AZLOCILLIN]
Not Active: IC50 [1] | IC50 [2] | Ki [2] | IC50 [3] | IC50 [4] | IC50 [5] | IC50 [6] | IC50 [7] | IC50 [8] | Ki [8] | IC50 [9] | Ki [9] | IC50 [10] | Ki [10]

CC[C@H](C)[C@H](N)C1=N[C@H](C(=O)N[C@@H](CC(C)C)C(=O)N[C@H](CCC(=O)O)C(=O)N[C@H](C(=O)N[C@H]2CCCCNC(=O)[C@H](CC(N)=O)NC(=O)[C@@H](CC(=O)O)NC(=O)[C@H](Cc3cnc[nH]3)NC(=O)[C@@H](Cc3ccccc3)NC(=O)[C@H]([C@@H](C)CC)NC(=O)[C@@H](CCCN)NC2=O)[C@@H](C)CC)CS1 [BACITRACIN] ({Ileψ(thiazoline)Cys}-L[dE]IK[dOrn]I[dF]H[dD]N; lactam 4-C)
Not Active: IC50 [1] | IC50 [2] | Ki [2] | IC50 [3] | IC50 [4] | IC50 [5] | IC50 [6] | IC50 [7] | IC50 [8] | Ki [8] | IC50 [9] | Ki [9] | IC50 [10] | Ki [10]

CCOC(=O)c1ccc(N)cc1 [BENZOCAINE]
Not Active: IC50 [1] | IC50 [2] | Ki [2] | IC50 [3] | IC50 [4] | IC50 [5] | IC50 [6] | IC50 [7] | IC50 [8] | Ki [8] | IC50 [9] | Ki [9] | IC50 [10] | Ki [10]

OCc1ccccc1 [BENZYL ALCOHOL]
Not Active: IC50 [1] | IC50 [2] | Ki [2] | IC50 [3] | IC50 [4] | IC50 [5] | IC50 [6] | IC50 [7] | IC50 [8] | Ki [8] | IC50 [9] | Ki [9] | IC50 [10] | Ki [10]
